The record followed here is patent US20150094321A1, “COMBINATION” (GlaxoSmithKline LLC, priority 2009, published 2015).

SMILES strings stand for the structures.

Assay [1] concerns ASPC1. As to the kind of experiment: Cell line proliferation study. The assay is classed as cell-based, human. As to conditions: ASPC1, pancreas; for IC50: Homo sapiens, 72 hours, read-out: gIC50. On the procedure: (§1) In a separate study, combination drug tests with Compounds A and B were conducted using a panel of cell lines from human colon cancers (n=26), lung cancers (n=15) and pancreatic cancers (n=6). Cell lines were obtained from commercial vendors (ATCC and DSMZ). Cell lines were grown in RPMI-1640 supplemented with 2 mM glutamine, 1 mM sodium pyruvate and 10% fetal bovine serum (except for Capan-1 and HuP-T4 which were grown with 20% fetal bovine serum) and maintained at 37° C. and 5% CO2 in a humid incubator. Assays were performed in 384 well microtiter plates with optimum seeding densities for each cell line.
(§2) The test compounds were prepared as 10 mM stocks in 100% DMSO. Further dilutions of the compounds were made in DMSO. Compound A was diluted horizontally in a separate 96 well microtiter plate in rows D-G using a 3-fold dilution series for 10 dilution points. Compound B was similarly diluted horizontally in a 96 well microtiter plate in rows B-E using a 3-fold dilution series for 10 dilution points.
(§3) The two compounds were combined using equal volumes from each drug plate into cell culture media. […] Both Compound A and Compound B were individually titrated in rows B and C (for Compound B) and rows F and G (for Compound A) of the merged drug plate.
(§4) A 1:10 dilution of the drugs was performed in cell culture media prior to addition to the cells.
(§5) The final concentration range for the test compounds was 250 to 0.013 nM for Compound A and 1000 to […] for Compound B. The positive control consisted of culture media with DMSO at 0.1% and cells. The negative control consisted of culture media with DMSO at 0.1%. The cell lines were incubated at 37° C., 5% CO2 in humid air for 72 hours. Cell proliferation was measured using the CellTiter Glo (Promega) reagent according to the manufacturer's protocol. The plates are treated with CellTiter Glo solution and are analyzed for RLU (relative light units) using a Molecular Devices SpectraMax M5 plate reader.
(§6) The percent intensity values were used in model 205 of XLfit (IDBS, Inc.) in Microsoft Excel to calculate gIC50 values using a 4 parameter logistical fit. The midpoint of the growth window (the gIC50) falls half way between the number of cells at the time of compound addition (T=0) and the growth of control cells treated with DMSO at 72 hrs. The number of cells at time zero (T0) is divided from the intensity value at the bottom of the response curve (Ymin) to generate a measure for cell death (Ymin/T0). A value below 1 for Ymin/T0 indicates stronger potency to induce cell death with the treatment when compared to higher values. […]

For assay [2], the system named is Calu6. The experiment in a line: Cell line proliferation study. It is filed as cell-based, human. The conditions noted are these: Calu6, lung; for IC50: Homo sapiens, Calu-6, 72 hours, read-out: gIC50. The method, then:
as §1, §2, §3, §4, §5, §6

For assay [3], the system named is HCT116. As to the kind of experiment: Cell line proliferation study. As to conditions: HCT116, colon; for IC50: Homo sapiens, HCT-116, 72 hours, read-out: gIC50. The assay is classed as cell-based, human. On the procedure: as §1, §2, §3, §4, §5, §6
Assay [4] deals with NCIH508. As to the kind of experiment: Cell line proliferation study. It is filed as cell-based, human. As to conditions: NCIH508, colon; for IC50: Homo sapiens, NCI-H508, 72 hours, read-out: gIC50. The method, then: as §1, §2, §3, §4, §5, §6
For assay [5], the system named is LS1034. As to the kind of experiment: Cell line proliferation study. It is filed as cell-based, human. The conditions noted are these: LS1034, colon; for IC50: Homo sapiens, LS-1034, 72 hours, read-out: gIC50. The method, then:
as §1, §2, §3, §4, §5
(§7) The percent intensity values were used in model 205 of XLfit (IDBS, Inc.) in Microsoft Excel to calculate gIC50 values using a 4 parameter logistical fit. The midpoint of the growth window (the gIC50) falls half way between the number of cells at the time of compound addition (T=0) and the growth of control cells treated with DMSO at 72 hrs. The number of cells at time zero (T0) is divided from the intensity value at the bottom of the response curve (Ymin) to generate a measure for cell death (Ymin/T0). A value below 1 for Ymin/T0 indicates stronger potency to induce cell death with the treatment when compared to higher values.
(§8) 1. Excess over Highest Single Agent (EOHSA)—This was calculated as described above (Borisy et al, 2003; FDA 21 CFR 300.50) 2. Bliss synergy—A second criterion often used to determine combination synergy is evaluating the excess inhibition over Bliss independence or “additivity” (Bliss and Mexico, 1939). The model assumes a combined response of the two compounds independently using the following:
(§9) Where Ea is the effect (or percent inhibition) of Compound A and Eb is the effect of Compound B. The resulting effect of the combination of the two compounds is compared to their predicted additivity by Bliss and a synergy score is generated for each dose along the response curve. 3. Combination Index (CI)—A third criterion traditionally used for the evaluation of synergy is Combination Index (CI) derived from the Chou and Talalay (1984). The following equation is a model used for compounds that behave with different mechanisms of action (mutually non-exclusive formula). This was calculated as described above.
(§10) For EOHSA and Bliss Synergy measures, a score is generated for each dose along the response curve. These scores reflect the percentage over the highest agent (EOHSA) or percentage greater than Bliss additivity, depending on which metric is being interpreted. […]

The subject of assay [6] is NCIH1299. The experiment in a line: Cell line proliferation study. The conditions noted are these: NCIH1299, lung; for IC50: Homo sapiens, NCI-H1299, 72 hours, read-out: gIC50. The assay is classed as cell-based, human. On the procedure: as §1, §2, §3, §4, §5, §7, §8, §9, §10
The subject of assay [7] is Capan2 tumor xenografts. The experiment in a line: Growth of human pancreatic tumor xenografts in SCID mice. As to conditions: for % Tumor Growth Inhibition: Capan2-D01, QD, Treatment Duration 56; for tumor growth inhibition: Capan2. The assay is classed as in vivo. The method, then:
(§11) Female SCID mice were implanted subcutaneously with HPAC or Capan2 tumor cells (human pancreatic carcinoma harboring mutant KRAS gene). When the tumor volume reached ˜150 mm^3, mice were block randomized to different treatment groups (n=8 mice/group). Mice received AKT inhibitor, Compound B, at 10 or 30 mg/kg, once daily (QD). MEK inhibitor, Compound A, was administered at 0.1, 0.3 and 1.0 mg/kg, once daily (QD) alone or at 0.1 and 0.3 mg/kg once daily in combination with AKT inhibitor. Mice were weighed and tumors measured by calipers twice weekly. Treatment was continued till the tumor volume reached >1000 mm^3. Tumor volumes were calculated using the formula: tumor volume=(Length×Width^2)/2. The percentage of tumor growth inhibition was calculated on each day of tumor measurement using the formula: 100×[1−(average growth of the compound-treated tumors/average growth of vehicle-treated control tumors)]. Data is plotted as mean±sem for tumor volume for each group.
On the technique in general: Xenograft models place foreign cells or tissue in a host animal.

The subject of assay [8] is HPAC tumor xenografts. The assay is described as above. It is filed as in vivo. The conditions noted are these: for % Tumor Growth Inhibition: QD; for tumor growth inhibition: HPAC. On the procedure:
as §11

As for `CC(=O)Nc1cccc(-n2c(=O)n(C3CC3)c(=O)c3c(Nc4ccc(I)cc4F)n(C)c(=O)c(C)c32)c1` [Compound A, N-{3-[3-cyclopropyl-5-(2-fluoro-4-iodo-phenylamino)-6,8-dimethyl-2,4,7-trioxo-3,4,6,7-tetrahydro-2H-pyrido[4,3-d]pyrimidin-1-yl]phenyl}acetamide], the Ymin/T0 in assay [1] is on record as 13.6; in assay [2], 15.0; in assay [3] it was 19.40; in assay [4] it was 15.22; in assay [5], 2.87; in assay [6], 45.9. Also, the IC50 came out at 0.0197 µM in assay [1]; 0.0531 µM in assay [2]; 0.0232 µM in assay [3]; 0.0226 µM in assay [4]; 0.037 µM in assay [5]; 0.024 µM in assay [6]. In addition, the “% Tumor Growth Inhibition” value in assay [7] (Compound A 0.1 mg/kg po) is 74%; in assay [7] (Compound A 0.3 mg/kg po) it was 90%; in assay [7] (Compound A 1 mg/kg po) it was 104%; in assay [8] (HPAC-D01, Compound A 0.1 mg/kg po, Treatment Duration 75) it was 38%; in assay [8] (HPAC-D01, Compound A 0.3 mg/kg po, Treatment Duration 75), 60%; in assay [8] (HPAC-D01, Compound A 1 mg/kg po, Treatment Duration 75), 91%. In addition, the “% Tumor Growth Inhibition” value in assay [8] (HPAC-D02, Compound A 0.1 mg/kg po, Treatment Duration 74) came out at 41%; in assay [8] (HPAC-D02, Compound A 0.3 mg/kg po, Treatment Duration 74) it was 65%; in assay [8] (HPAC-D02, Compound A 1 mg/kg po, Treatment Duration 74), 89%. Besides, the tumor growth inhibition in assay [7] (0.1 mg/kg) was 70%; in assay [7] (0.3 mg/kg) it was 87%; in assay [7] (1.0 mg/kg) it was 104%; in assay [8] (0.1 mg/kg QD) it was about 40%; in assay [8] (0.3 mg/kg QD) it was about 60%; in assay [8] (1 mg/kg QD), about 90%.
As for `Cn1ncc(Cl)c1-c1cc(C(=O)N[C@H](CN)Cc2ccc(F)c(F)c2)oc1Cl` [Compound B, N-{(1S)-2-amino-1-[(3,4-difluorophenyl)methyl]ethyl}-5-chloro-4-(4-chloro-1-methyl-1H-pyrazol-5-yl)-2-furancarboxamide], the Ymin/T0 is reported as 42.9 in assay [1]; 56.3 in assay [2]; 25.31 in assay [3]; 11.12 in assay [4]; −0.67 in assay [5]; 58.1 in assay [6]. In addition, the IC50 in assay [1] was over 1 µM; in assay [2], over 1 µM; in assay [3], over 1 µM; in assay [4], 0.0682 µM; in assay [5], over 1 µM; in assay [6], over 1 µM. In addition, the “% Tumor Growth Inhibition” value in assay [7] (Compound B 10 mg/kg po) is recorded as 22%; in assay [7] (Compound B 30 mg/kg po), 26%; in assay [8] (HPAC-D01, Compound B 10 mg/kg po, Treatment Duration 75), 11%; in assay [8] (HPAC-D01, Compound B 30 mg/kg po, Treatment Duration 75) it was 40%; in assay [8] (HPAC-D02, Compound B 10 mg/kg po, Treatment Duration 74) it was 15%; in assay [8] (HPAC-D02, Compound B 30 mg/kg po, Treatment Duration 74) it was 31%. Further, the tumor growth inhibition in assay [7] (at both 10 and 30 mg/kg doses) is 27-30%; in assay [8] (10 mg/kg QD, two independent studies) it was 11-15%; in assay [8] (30 mg/kg QD, two independent studies), 31-40%.
